Experimental data as given in patent publication US11071744B2, “Prodrug salts” (AEROMICS, INC., priority 2013, dated 2021).
≈ marks a conversion by molar mass, not a printed value. Counter-ions that a name gives are not always drawn. Like-named read-outs stand apart in the source and are kept apart here.

How the values were obtained:
physchem = conditions: for final pH of solutions: in water
Experimental: (§1) 15 g is dissolved in 1.2 L of water with 120 mM of sodium hydroxide and extracted with 500 ml ethyl acetate to remove phenol and non acid impurities. The aqueous layer is acidified with concentrated HCl to pH 1.2 and extracted with ethyl acetate 1 L followed by 600 ml. […] Ethyl acetate is removed by adding 100 ml of methanol and evaporating. […] Sample kept at RT.

[1] = Experimental: as §1
[2] = tested on: mouse water toxicity model; assay: Mouse water toxicity model, brain volume by MRI
Experimental: Mouse Water Toxicity Model—Brain Volume by Magnetic Resonance Imaging (MRI): MRI is used to measure changes in brain volume in response to water shock, using the water toxicity model. As described for the survival and brain water content studies above, mice are injected, IP, with a water bolus alone or water bolus and test compound at 0.76 mg/kg, and changes in brain volume as detected by MRI are monitored. […] High resolution T2-weighted sagittal scans (resolution=0.1 mm×0.1 mm×0.7 mm) of the mouse head are obtained prior to water injection, 5.67 min post water injection, and then every 5.2 minutes until the animal expires from the water loading. Each scan contains twenty-five 0.7 mm contiguous imaging slices of which 14-15 slices contain a portion of the brain. The cross sectional area of the brain in each imaging slice is measured by manual region-of-interest selection using ImageJ. Brain volumes are then calculated for each scan by summing the individual cross sectional brain areas and multiplying by the slice thickness (0.7 mm).
The brain volume by magnetic resonance imaging experiment is also conducted with phenylbenzamide (0.39 mg/kg) and Compound 4 (0.83 mg/kg).

[3] = tested on: mouse water toxicity model; assay: Mouse water toxicity model, survival curves; conditions: 0.76 mg/kg vs placebo
Experimental: Mouse Water Toxicity Model—Survival Curves: The in vivo efficacies of the compounds are tested using the mouse water toxicity model, where a mouse is injected with water at 20% of its body weight. […] The resulting euvolemic hyponatremia rapidly leads to CE, making this a practical model to test an inhibitor of the CNS aquaporin, AQP4b.
The ability of mice to survive H2O toxicity is determined in three experiments using 10-12 mice each (16-19 weak old male/female). Deionized water is prepared for injection with either 0.39 mg/kg phenylbenzamide (placebo) or 0.76 mg/kg with test compound.

AQP4b [4] = assay: Aquaporin-Mediated Cell Volume Change Assay, CHO-AQP4b cells; assay type: cell-based; conditions: 10 μM, AQP4 (both splice variants)
Experimental: (§2) Structure activity relationships (SARs) are determined by assaying analogues of selected hits to guide chemistry for the preparation of new molecules to be tested for improved potency. For this iterative process we use a quantitative kinetic assay—the Aquaporin-Mediated Cell Volume Change Assa—in a 96-well multiplate reader. It detects changes in light scattering by a monolayer of CHO cells expressing the desired AQP as they shrink when exposed to hypertonic solution (300 mOsm→530 mOsm). FIG. 1 depicts the aquaporin-mediated cell volume change assay with AQP4 expressing cells (FIG. 1A) and AQP2 expressing cells (FIG. 1B). The cells expressing aquaporins shrink more rapidly than control cells, due to enhanced water flow, which shrinkage can be inhibited by a compound that inhibits the aquaporin.
(§3) In FIG. 1, aquaporin-expressing cells are shown in the presence of DMSO (triangles) or in the presence of the test compound (here, Compound 3) at 10 μM (squares), along with CHO-CD81 expressing control cells in the presence of DMSO (diamonds). Each curve represents an average of 16 wells in the 96-well plate.
(§4) In FIG. 1A, when the AQP4b cells treated with DMSO are exposed to hypertonic shock, the cells show rapid shrinking, giving a rise in light scattering (increasing relative change in absorbance, Abs/Abs0) followed by a decay as cells detach from the plate. […]

AQP4b [5] = biological target: T1, AQP4b (Homo sapiens, UniProt P55087); assay: as above; assay type: cell-based; conditions: read-out: inhibition of rate of shrinking, 10 μM, CHO-AQP4b cells, hypertonic shock
T1 construct: expressed in transfected cells
T1 sequence (P55087 23-323 limits assumed): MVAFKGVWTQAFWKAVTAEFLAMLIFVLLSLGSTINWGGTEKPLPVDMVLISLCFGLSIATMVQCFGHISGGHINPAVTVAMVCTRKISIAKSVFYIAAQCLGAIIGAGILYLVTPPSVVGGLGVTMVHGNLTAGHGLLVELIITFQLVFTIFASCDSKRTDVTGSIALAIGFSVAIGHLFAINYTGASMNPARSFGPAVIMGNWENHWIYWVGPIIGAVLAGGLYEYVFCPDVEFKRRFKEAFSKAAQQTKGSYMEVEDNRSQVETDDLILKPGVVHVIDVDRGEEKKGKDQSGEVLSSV
Experimental: as §2, §3, §4

AQP1 = biological target: T2, AQP1 (Homo sapiens, UniProt P29972); assay: Aquaporin-Mediated Cell Volume Change Assay, CHO cells expressing AQP1; assay type: cell-based; conditions: 10 μM
T2 construct: expressed in transfected cells
T2 sequence (P29972 1-269): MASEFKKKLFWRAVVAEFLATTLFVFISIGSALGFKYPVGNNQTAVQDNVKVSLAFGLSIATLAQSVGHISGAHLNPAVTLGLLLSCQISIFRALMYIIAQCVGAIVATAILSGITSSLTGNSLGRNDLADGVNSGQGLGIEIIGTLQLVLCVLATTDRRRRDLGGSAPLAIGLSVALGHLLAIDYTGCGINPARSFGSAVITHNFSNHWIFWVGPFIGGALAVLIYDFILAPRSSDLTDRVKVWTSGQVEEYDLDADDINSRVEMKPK
Experimental: as §2
(§5) The specificity of the compounds is tested against the most closely related of the 13 known aquaporins: AQP1, AQP2, AQP5 and both splice variants of AQP4 (A and B). A stable CHO cell line is created for each of the above aquaporins and the inhibition of water permeability using the Aquaporin-Mediated Cell Volume Change Assay with 10 μM Compound 3 is tested.

AQP5 = biological target: T3, AQP5 (Homo sapiens, UniProt P55064); assay: Aquaporin-Mediated Cell Volume Change Assay, CHO cells expressing AQP5; assay type: cell-based; conditions: 10 μM
T3 construct: expressed in transfected cells
T3 sequence (P55064 whole entry, species assumed): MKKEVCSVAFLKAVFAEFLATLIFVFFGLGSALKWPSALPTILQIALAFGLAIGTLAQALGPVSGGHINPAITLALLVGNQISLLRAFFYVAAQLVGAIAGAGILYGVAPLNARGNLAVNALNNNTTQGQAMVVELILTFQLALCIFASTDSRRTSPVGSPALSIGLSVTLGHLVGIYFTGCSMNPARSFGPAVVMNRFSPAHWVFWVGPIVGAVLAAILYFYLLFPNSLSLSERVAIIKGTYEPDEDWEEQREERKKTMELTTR
Experimental: as §2, §5

AQP2 = biological target: T4, AQP2 (Homo sapiens, UniProt P41181); assay: Aquaporin-Mediated Cell Volume Change Assay, CHO-AQP2 cells; assay type: cell-based; conditions: 10 μM
T4 construct: expressed in transfected cells
T4 sequence (P41181 1-271): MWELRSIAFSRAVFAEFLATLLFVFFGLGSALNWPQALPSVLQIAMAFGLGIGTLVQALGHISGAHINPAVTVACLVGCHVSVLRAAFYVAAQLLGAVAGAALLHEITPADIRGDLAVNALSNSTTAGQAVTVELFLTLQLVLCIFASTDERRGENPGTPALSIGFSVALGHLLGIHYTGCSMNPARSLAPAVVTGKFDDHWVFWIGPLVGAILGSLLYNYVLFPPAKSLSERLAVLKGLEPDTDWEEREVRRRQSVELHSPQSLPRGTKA
Experimental: as §2, §3, §4

purified AQP4b = purified AQP4b (Homo sapiens, UniProt P55087); assay: Hummel-Dryer style binding assay with [3H]-Compound 4
Sequence of purified AQP4b (P55087 23-323): as the sequence (P55087 23-323 limits assumed) above
Experimental: To support the mechanism of action by which phenylbenzamides directly block AQP4, we perform in vitro binding studies using purified AQP4b and Compound 4 radiolabeled with ^3H. Using a Hummel-Dryer style assay, a gel filtration column is equilibratrated with buffer containing detergent, to maintain solubility of AQP4b, and 1 μM [^3H]-Compound 4. AQP4b is diluted to 250 μM in this column buffer and incubated at RT for 30 min. The sample is then applied to the column, fractions collected and the presence of [^3H]-Compound 4 detected by liquid scintillation counting. […] The rise in [^3H]-Compound 4 from a baseline value of 1 μM represents binding to each of these proteins.

AQP4 = biological target: T5, AQP4 (Homo sapiens, UniProt P55087); assay: AQP Inhibition Cell-Based Assay (Table 1)
T5 construct: expressed in transfected cells; host or cells: CHO
T5 sequence (P55087 23-323, species assumed): as the sequence (P55087 23-323 limits assumed) above

[6] = tested on: mouse middle cerebral artery occlusion (MCAo) model; assay: MCAo stroke model, survival; assay type: in vivo; conditions: at 24 h; 2 mg/kg i.p. loading dose plus 1 mg/ml at 8 μl/h pump, vs saline
Experimental: (§6) To mimic this injury in mice, an intraluminal monofilament model of middle cerebral artery occlusion (MCAo) is used. Occlusion is achieved by inserting a surgical filament into the external carotid artery (ECA) and threading it forward into the internal carotid artery (ICA) until the tip blocks the origin of the MCA. […] This technique is used to study a temporary occlusion in which the MCA is blocked for one hour. The filament is then removed allowing reperfusion to occur for 24 hours before the animals brain is imaged using T2-weighted scans in a 9.4T Bruker MRI scanner at the Case Center for Imaging Research (FIG. 10).
Survival—Mice are treated with Compound 5 using a 2 mg/kg i.p. loading dose and 1 mg/ml at 8 μl/h maintenance dose (delivered by an i.p. osmotic pump) of Compound 5, or given saline (controls; n=17) using an identical approach.

[7] = tested on: mouse middle cerebral artery occlusion (MCAo) model; assay: MCAo stroke model, neurological outcome; assay type: in vivo
Experimental: as §6
Neurological Outcome—In the same experiment as above, animals are scored for neurological outcome on a simple 5 point scale described in Manley, G. T. et al., Aquaporin-4 Deletion in Mice Reduces Brain Edema After Acute Water Intoxication and Ischemic Stroke, Nature Medicine, 6, 159-163 (2000).

[8] = tested on: mouse middle cerebral artery occlusion (MCAo) model; assay: MCAo stroke model, cerebral edema (hemispheric brain volume by MRI)
Experimental: as §6
Cerebral Edema—Mice are given saline or treated with Compound 5 by multi-dosing at 5 mg/kg i.p. every three hours (n=8 per treatment). […] Ipsilateral and contralateral hemispheric volume is measured from the T2-weighted MR images of mice 24 hours post-icus. Relative change in hemispheric volume is calculated as a percent of the difference between ipsilateral brain volume (Vi) and contralateral brain volume (Vc) relative to the contralateral brain volume (Percent Change in Hemispheric Brain Volume=((Vi−Vc)/Vc)×100%.

[9] = Bioconversion of prodrug salt to Compound 1 in mouse plasma in vitro; assay type: in vitro ADME; conditions: 20° C.
[10] = mice injected IP
Experimental: Measurements are taken at 15 minutes and 24 hours after a 10 mg/kg i.p. loading dose and 1 mg/ml at 8 μl/h maintenance dose (delivered by an Alzet i.p. osmotic pump, Durect Corp., Cupertino, Calif.) of 2-{[3,5-bis(trifluoromethyl)phenyl]carbamoyl}-4-chlorophenyl phosphate bis ethanolamine salt (n=5 mice/time point, mean±SEM) (FIG. 9). […] Samples are analyzed by tandem LC-MS/MS using C18 reversed-phase chromatography and mass analysis with a triple-quadrapole mass spectrometer.

[11] = solid state, freeze dried salts

**Q.** With `O=C(Nc1cc(C(F)(F)F)cc(C(F)(F)F)c1)c1cc(Cl)ccc1OP(=O)(O)O` as the molecule, how does the solubility (physchem; pH 7, aqueous buffer) read?
**A.** 5000 µg/mL (≈ 10.8 mM)

**Q.** And the “stability at RT” value [1]?
**A.** stable at RT for a week or more

**Q.** Which solubility in water (physchem; water) does the source give for `O=C(Nc1cc(C(F)(F)F)cc(C(F)(F)F)c1)c1cc(Cl)ccc1O` [Compound 1, N-(3,5-bis(trifluoromethyl)phenyl)-5-chloro-2-hydroxybenzamide] here?
**A.** 3.8 µg/mL (≈ 0.0099 mM)

**Q.** What about the “extent of CE during the period of observation” value ([2]; 0.76 mg/kg) of the same molecule?
**A.** reduced

**Q.** And the “reduction of rate of CE development” value ([2]; 0.76 mg/kg, from 0.081 to 0.032 min^−1)?
**A.** 2.5 fold

**Q.** What about the plasma levels ([2]; mouse water toxicity model, 0.76 mg/kg IP, LC-MS/MS) of the same molecule?
**A.** 0.03 to 0.06 µg

**Q.** What about the “improvement of percent survival” value [3] of the same molecule?
**A.** 3.2 fold

**Q.** And the “improvement of time to 50% survival” value [3]?
**A.** roughly 52 min

**Q.** What does the source list for `O=C(Nc1cc(Cl)cc(Cl)c1)c1cc(Cl)ccc1O` [Compound 3, 5-chloro-N-(3,5-dichlorophenyl)-2-hydroxybenzamide]?
**A.** inhibition of water permeability (AQP4b [4]): inhibits; inhibition at 10 µM (AQP4b [5]): 55%; inhibition of water permeability (AQP1): poorly inhibits; inhibition of water permeability (AQP5): poorly inhibits; inhibition of water permeability (AQP2): inhibits

**Q.** Which “binding to solubilized AQP4b” value (purified AQP4b) does the source give for `O=C(Nc1cc(C(F)(F)F)cc(C(F)(F)F)c1)c1cc(C(F)(F)F)ccc1O` [Compound 4, N-(3,5-bis(trifluoromethyl)phenyl)-2-hydroxy-5-(trifluoromethyl)benzamide] here?
**A.** relatively weak binding

**Q.** What about the “AQP Inhibition Cell-Based Assay (%)” value (AQP4) of the same molecule?
**A.** 38.9%

**Q.** Which results are given for `O=C(Nc1cc(C(F)(F)F)cc(C(F)(F)F)c1)c1cc(Cl)ccc1OP(=O)([O-])[O-].[Na+].[Na+]` [Compound 5]?
**A.** solubility in water (physchem): 1000 µg/mL; final pH of solutions (physchem): ~9.5; solubility (physchem; water): ~10000 µg/mL; improvement in overall survival [6]: 29.4%; hydrolysis in the solid state [1, 11]: about 1 % per day; longer term hydrolysis in solution ([1]; solution, RT, longer term): about 1 % per day; average neurological score ([7]; 5 point scale, control 2.77±0.66): 0.88±0.31; progression of neurological state ([7]; mouse, in vivo): did not progress into a state of severe paralysis or death; relative change in ipsilateral hemispheric brain volume ([8]; 24 hours after MCAo, 5 mg/kg i.p. every three hours, ±SEM, control 13.4%): 4.2±1.7%; reduction in brain swelling after MCAo ([8]; vs saline control): 3.2 fold

**Q.** Which “AQP Inhibition Cell-Based Assay (%)” value (AQP4) does the source give for `O=C(Nc1ccccc1)c1ccccc1` [Phenylbenzamide, reference compound] here?
**A.** 4.5%

**Q.** What does the source list for `O=C(Nc1cc(C(F)(F)F)cc(C(F)(F)F)c1)c1cc(Cl)ccc1OP(=O)(O)O` [bis ethanolamine salt]?
**A.** solubility (physchem; water): ~10000 µg/mL; hydrolysis in the solid state [1]: about 1 % per day; longer term hydrolysis in solution [1]: about 1 % per day; time to render prodrug undetectable [9]: Less than 5 minutes; bioavailability and conversion to Compound 1 [10]: good bioavailability and near-complete conversion; prodrug salt in plasma samples [10]: undetectable

**Q.** Which solubility (physchem; water) does the source give for `NCCO.O=C(Nc1cc(C(F)(F)F)cc(C(F)(F)F)c1)c1cc(Cl)ccc1OP(=O)(O)O` [mono ethanolamine salt] here?
**A.** ~5000 µg/mL

**Q.** What about the hydrolysis ([1]; after 5 days at RT) of the same molecule?
**A.** about 1%

**Q.** For `O=C(Nc1cc(C(F)(F)F)cc(C(F)(F)F)c1)c1cc(Cl)ccc1OP(=O)([O-])O.[Na+]` [mono sodium salt], which “final pH of solutions” value (physchem) is on record?
**A.** ~8.5

**Q.** And the solubility (physchem; water)?
**A.** ~5000 µg/mL

**Q.** What about the “hydrolysis in the solid state” value [1, 11] of the same molecule?
**A.** about 1 % per day

**Q.** What about the “longer term hydrolysis in solution” value ([1]; solution, RT, longer term) of the same molecule?
**A.** about 1 % per day
